PMC7464503, “Antioxidant and Antibacterial Properties of Carbosilane Dendrimers Functionalized with Polyphenolic Moieties” (Pharmaceutics, 2020)
≈ marks a conversion by molar mass, not a printed value.

What was measured:
[1] = test system: HFF-1 cells; experiment: Cell viability by MTT assay; assay type: cell-based, human; conditions: HFF-1, 16 ppm, 24 h
Protocol: (§1) HFF-1 cells were grown routinely in DMEM (Dulbecco’s modified Eagle’s medium, Sigma Aldrich, St. Louis, MO, USA, ref. D6429) supplemented with 10% fetal bovine serum (FBS, Sigma Aldrich, ref. F7524) and 1% penicillin/streptomycin/amphotericin B (Sigma Aldrich, ref. A5955) at 37 °C and 5% CO2. Cells were seeded in 96-well plates (Nunclon Delta Surface, Thermo Fischer Scientific, Waltham, MA, USA; 8 × 10^3 cells per well) and grown in a complete DMEM medium for 24 h. Cell viability was determined by MTT assay (MTT, 3-(4,5-dimethyl-2-thiazolyl)-2,5-diphenyl-2H-tetrazolium bromide). A stock compound solution was prepared in DMSO. Then, dilutions in cell culture were made to obtain the final concentrations with 1% of DMSO per well. […] After incubation, MTT was added at a concentration of 5 mg/mL and plates were incubated for 3 h. Finally, the culture medium was removed and the purple formazan crystals formed by the mitochondrial dehydrogenase and reductase activity of vital cells were dissolved in DMSO. The optical density, directly proportional to the number of surviving cells, was quantified at 570/630 nm in a spectrophotometer BioTEK 800 (Izasa). The assay was carried out in triplicate, with eight different wells for each concentration and with different controls (culture medium and DMSO).

[2] = Cyclic voltammetry, electrochemical characterization of the antioxidant capacity; assay type: physicochemical; conditions: for Ep (peak potential) / Ip (peak intensity) / ΔEp (difference between anodic and cathodic peak): glassy carbon electrode, ± SD of three measurements; for Ep (peak potential): 20 mM acetate buffer pH 3.6, vs Ag|AgCl|KCl (3M); for Ip (peak intensity) / ΔEp (difference between anodic and cathodic peak): 20 mM acetate buffer pH 3.6
Protocol: Electrochemical measurements were carried out on an Autolab PGSTAT 12 potentiostat from Metrohm (Utrecht, The Netherlands), employing a glassy carbon (GC) disk working electrode. The GC electrode was polished after each measurement using a 0.1 and 0.05 µm alumina/water slurry until a shiny mirror-like finish was achieved, and washed with ultrapure water. Electrodes were modified with 1 mM solutions of each compound (L, G1, and G2) in MeOH; 5 µL drops were drop-cast in the electrode and allowed to dry before the measurements. Electrochemical measurements were performed in a 20 mM acetate buffer solution (pH 3.6), employing an Ag|AgCl|KCl (3M) reference electrode and a platinum wire as a counterelectrode.
Electrochemical characterization of the antioxidant capacity: The electrochemical behavior of the synthesized polyphenolic dendrimers (1–6), together with the free polyphenol (L), has been investigated using cyclic voltammetry (CV). CV is a powerful electrochemical technique that can be employed to study the ability of a molecule to undergo electron transfer and to estimate the antioxidant activity through the peak potential (Ep), intensity (ip), and reversibility (ΔEp). A lowering in the Ep or ΔEp and an increase in the ip are indicative of higher antioxidant activity.

[3] = test system: Staphylococcus aureus (CECT 240); experiment: In vitro antibacterial activity (ISO 20776-1:2006), turbidity at 625 nm; assay type: cell-based; conditions: CECT240, S. aureus, 24 h at 37 °C, 1% DMSO, tested up to 16 ppm; for IC50: read-out: MIC50; for IC80: read-out: MIC80
Protocol: (§2) In vitro antibacterial analysis of dendritic polyphenols was performed following the international standard method ISO 20776-1:2006 [22]. The antibacterial activity was assayed in two different bacteria, Escherichia coli (CECT 515) and Staphylococcus aureus (CECT 240), both obtained from the Spanish Type Culture Collection in lyophilized form. The biocide solutions were prepared following the EUCAST (European Committee for Antimicrobial Susceptibility Testing) protocol for hydrophobic compounds. For this purpose, stock solutions in DMSO of each compound were made and then, subsequent dilutions in Mueller-Hinton […] (Scharlau, ref. 02–136) were developed to obtain the testing concentrations (from 0.0312 ppm to 16 ppm) with 1% of DMSO. The assay was carried out in 96-well plates, with two different wells for each concentration and with different controls (biocide, inoculum, culture medium, and DMSO). The bacteria were inoculated at a concentration of 10^5 CFU/mL in wells. After 24 h of incubation with biocides at 37 °C, the increase of turbidity at 625 nm was determined using an Ultra Microplate reader (BIO-TECK Instruments, model ELx808). MIC50 and MIC80 values were the concentrations of the compounds with an optical density of 50% and 20% compared to nontreated bacteria.

[4] = test system: Escherichia coli (CECT 515); experiment: as above; assay type: cell-based; conditions: CECT515, E. coli, 24 h at 37 °C, 1% DMSO, tested up to 16 ppm, read-out: MIC50
Protocol: as §2

[5] = Cell viability by MTT assay; assay type: cell-based, human; conditions: human; for viability at 24 h, 8 ppm: HFF-1, 8 ppm; for viability at 24 h, 16 ppm: HFF-1, 16 ppm
Protocol: as §1

[6] = DPPH free radical-scavenging assay; conditions: stated as the same activity as the cited polyether dendrimers
Protocol: This method involves the radical concentration reduction by the antioxidant agent, which entails absorbance reduction and increasing compound concentration. When antioxidants are mixed with DPPH solution, the color turns from purple to yellow, with the maximum absorption at 530 nm. The ability of dendritic polyphenols to scavenge the DPPH radical was evaluated. An aliquot of 100 µL of different stock sample concentrations in the range of 0.01 and 100 µM in methanol was added to a volume of 900 µL of a DPPH stock solution (0.12 mM) in a DMSO/H2O (1:1) mixture. The mixture was shaken, kept in the dark at room temperature, and recorded at 530 nm every 5 min up to 30 min. The blank was constituted by methanol instead of the sample.
The IC50 of DPPH scavenging activity and EC50 of FRAP capacities were calculated following similar protocols. Firstly, for each concentration, it was necessary to calculate the DPPH remnant, as well as the Fe(II) that formed, through the following equations: 1. DPPHREM(%)=(As/Ac)×100 2. Fe(II)FOR(%)=(As−Ac/Ac)×100 where REM = remnant, FOR = formed, As = Sample absorbance, and Ac = Control absorbance. The graphical representation of the percentage of the remnant or formed reagent versus the −log[X] […] The results are expressed as mean ± SEM and are representative of at least three independent experiments.

[7] = G2 compared to free polyphenol L

COc1cc(/C=C/C(=O)NCCC[Si](C)(C)CCC[Si](C)(CCC[Si](C)(C)CCCNC(=O)/C=C/c2ccc(O)c(OC)c2)CCC[Si](CCC[Si](C)(CCC[Si](C)(C)CCCNC(=O)/C=C/c2ccc(O)c(OC)c2)CCC[Si](C)(C)CCCNC(=O)/C=C/c2ccc(O)c(OC)c2)(CCC[Si](C)(CCC[Si](C)(C)CCCNC(=O)/C=C/c2ccc(O)c(OC)c2)CCC[Si](C)(C)CCCNC(=O)/C=C/c2ccc(O)c(OC)c2)CCC[Si](C)(CCC[Si](C)(C)CCCNC(=O)/C=C/c2ccc(O)c(OC)c2)CCC[Si](C)(C)CCCNC(=O)/C=C/c2ccc(O)c(OC)c2)ccc1O [G2 (4), G2-[Si(CH2)3NH(CO)CH=CHCH2Ph(OH)(OCH3))]8]
% Viability [1]: 92.9 ± 7.4% | decrease in the Ep compared to L [2, 7]: 73 mV | Ep (peak potential) [2]: 0.613 ± 0.008 V | Ip (peak intensity) [2]: 0.56 ± 0.02 µA | IC50 [3]: > 16 µg/mL | IC80 [3]: > 16 µg/mL | IC50 [4]: > 16 µg/mL

COc1cc(C=CC(=O)O)ccc1O [Ferulic L, 3-(4-hydroxy-3-methoxyphenyl)-2-propenoic acid, reference compound]
Ep (peak potential) [2]: 0.686 ± 0.009 V | Ip (peak intensity) [2]: 3.70 ± 0.08 µA | IC50 [3]: > 16 µg/mL | IC80 [3]: > 16 µg/mL | IC50 [4]: > 16 µg/mL

C[Si](C)(CCCNC(=O)/C=C/c1ccc(O)c(O)c1)CCC[Si](C)(CCC[Si](C)(C)CCCNC(=O)/C=C/c1ccc(O)c(O)c1)CCC[Si](CCC[Si](C)(CCC[Si](C)(C)CCCNC(=O)/C=C/c1ccc(O)c(O)c1)CCC[Si](C)(C)CCCNC(=O)/C=C/c1ccc(O)c(O)c1)(CCC[Si](C)(CCC[Si](C)(C)CCCNC(=O)/C=C/c1ccc(O)c(O)c1)CCC[Si](C)(C)CCCNC(=O)/C=C/c1ccc(O)c(O)c1)CCC[Si](C)(CCC[Si](C)(C)CCCNC(=O)/C=C/c1ccc(O)c(O)c1)CCC[Si](C)(C)CCCNC(=O)/C=C/c1ccc(O)c(O)c1 [G2 (5), G2-[Si(CH2)3NH(CO)CH=CHCH2Ph(OH)2)]8]
% Viability [1]: 100.0 ± 0.0% | decrease in ΔEp compared to L [2, 7]: 85 mV | Ep (peak potential) [2]: 0.302 ± 0.010 V | Ip (peak intensity) [2]: 0.143 ± 0.09 µA | ΔEp (difference between anodic and cathodic peak) [2]: 0.120 ± 0.009 V | IC50 [3]: > 16 µg/mL | IC80 [3]: > 16 µg/mL | IC50 [4]: > 16 µg/mL

O=C(O)/C=C/c1ccc(O)c(O)c1 [Caffeic L, reference compound]
Ep (peak potential) [2]: 0.263 ± 0.005 V | Ip (peak intensity) [2]: 2.91 ± 0.07 µA | ΔEp (difference between anodic and cathodic peak) [2]: 0.205 ± 0.002 V | IC50 [3]: > 16 µg/mL | IC80 [3]: > 16 µg/mL | IC50 [4]: > 16 µg/mL

C[Si](C)(CCCNC(=O)c1cc(O)c(O)c(O)c1)CCC[Si](CCC[Si](C)(C)CCCNC(=O)c1cc(O)c(O)c(O)c1)(CCC[Si](C)(C)CCCNC(=O)c1cc(O)c(O)c(O)c1)CCC[Si](C)(C)CCCNC(=O)c1cc(O)c(O)c(O)c1 [G1 (3), G1-[Si(CH2)3NH(CO)Ph(OH)3]4]
viability at 24 h, 4 ppm ([5]; HFF-1, 4 ppm): 84.8 ± 7.5% | viability at 24 h, 8 ppm [5]: 99.1 ± 1% | Ep (peak potential) [2]: 0.410 ± 0.008 V | Ip (peak intensity) [2]: 4.12 ± 0.07 µA | IC50 [3]: 4 µg/mL (≈ 3.15 µM) | IC80 [3]: 8 µg/mL (≈ 6.3 µM) | IC50 [4]: 16 µg/mL (≈ 12.6 µM)

O=C(O)c1cc(O)c(O)c(O)c1 [Gallic L, 3,4,5-trihydroxybenzoic acid, reference compound]
Ep (peak potential) [2]: 0.477 ± 0.001 V | Ip (peak intensity) [2]: 3.87 ± 0.08 µA | IC50 [3]: > 16 µg/mL | IC80 [3]: > 16 µg/mL | IC50 [4]: > 16 µg/mL

COc1cc(/C=C/C(=O)NCCC[Si](C)(C)CCC[Si](CCC[Si](C)(C)CCCNC(=O)/C=C/c2ccc(O)c(OC)c2)(CCC[Si](C)(C)CCCNC(=O)/C=C/c2ccc(O)c(OC)c2)CCC[Si](C)(C)CCCNC(=O)/C=C/c2ccc(O)c(OC)c2)ccc1O [G1 (1), G1-[Si(CH2)3NH(CO)CH=CHCH2Ph(OH)(OCH3))]4]
viability at 24 h, 16 ppm [5]: 95.4 ± 6.6% | Ep (peak potential) [2]: 0.637 ± 0.002 V | Ip (peak intensity) [2]: 0.75 ± 0.06 µA | IC50 [3]: > 16 µg/mL | IC80 [3]: > 16 µg/mL | IC50 [4]: > 16 µg/mL

C[Si](C)(CCCNC(=O)/C=C/c1ccc(O)c(O)c1)CCC[Si](CCC[Si](C)(C)CCCNC(=O)/C=C/c1ccc(O)c(O)c1)(CCC[Si](C)(C)CCCNC(=O)/C=C/c1ccc(O)c(O)c1)CCC[Si](C)(C)CCCNC(=O)/C=C/c1ccc(O)c(O)c1 [G1 (2), G1-[Si(CH2)3NH(CO)CH=CHCH2Ph(OH)2)]4]
IC50 [6]: ~5 µM | viability at 24 h, 8 ppm [5]: 98.8 ± 1.7% | viability at 24 h, 16 ppm [5]: 100% | Ep (peak potential) [2]: 0.276 ± 0.009 V | Ip (peak intensity) [2]: 1.39 ± 0.04 µA | ΔEp (difference between anodic and cathodic peak) [2]: 0.188 ± 0.006 V | IC50 [3]: 8 µg/mL (≈ 6.11 µM) | IC80 [3]: 16 µg/mL (≈ 12.2 µM) | IC50 [4]: > 16 µg/mL
